Data taken from patent US20210196899A1, “MICRONEEDLE COATED WITH DRUG AND MANUFACTURING METHOD FOR SAME” (SR BIOTEK INC., priority 2018, published 2021).
No end group written: not given here.

Tested on: Fibroblasts (CCD-986SK)
Assay: Measurement of collagen content in cell line (Procollagen type I peptide EIA kit)
Format: cell-based
Conditions: FIG. 4
Experimental: The culture supernatant was collected and the amount of collagen was measured as described below according to the guidelines of the Ministry of Food and Drug Safety, and the results thereof are shown in FIG. 4.
100 μl of an antibody-PoD conjugate solution was placed in each well, after which the culture solution and a standard solution were added in an amount of 20 μL thereto and cultured at 37° C. for 3 hr. The culture solution was removed from the well, followed by washing four times with 400 μL of a phosphate-buffered saline (PBS). 100 μL of a color development reagent (Procollagen type I peptide EIA kit, Takara Biomedical Co.) was added thereto, followed by culture at room temperature for 15 min, addition with 100 μL of 1 N sulfuric acid, and measurement at 450 nm using an ELISA reader.

| Compound | collagen synthesis and promotion effects (50 to 200 ppm) | other results |
| --- | --- | --- |
| NCCCC[C@H](NC(=O)[C@H](Cc1c[nH]cn1)NC(=O)CNC(=O)CS)C(=O)O [GHK-TA] | – | collagen synthesis and promotion effects (concentration of 70 to 80 ppm, 24 hr): superior collagen synthesis and promotion effects |
| (EEMQRR)-TA: sulfhydryl-hexapeptide of Example 1-3-1-3; Chemical Formula 7 Glu-Glu-Met-Gln-Arg-Arg-X with linker X thioglycolic acid (TA) (EEMQRR-{thioglycolic acid}) | – | collagen synthesis and promotion effects (thioglycolic acid (TA) as the linker compared to cysteine (CS) as the linker): superior collagen synthesis and promotion effects |
| KTTKS [reference compound] | increased in proportion to the concentration | – |
| KTTKS-TA: sulfhydryl KTTKS of Example 1-3-1-2; Chemical Formula 5 Lys-Thr-Thr-Lys-Ser-X with linker X thioglycolic acid (TA) (KTTKS-{thioglycolic acid}) | vastly superior compared to KTTKS | – |
